The values that follow are results of earlier work, collected in US20240285636A1, “PHARMACEUTICAL COMPOSITION AND USE OF THE PHARMACEUTICAL COMPOSITION” (LIBBS FARMACÊUTICA LTDA, priority 2021, published 2024).

Structures are written as SMILES.

The conditions of this series: class IV = low solubility and low permeability.

Turning to `CCCSc1nc(N[C@@H]2C[C@H]2c2ccc(F)c(F)c2)c2nnn([C@@H]3C[C@H](OCCO)[C@@H](O)[C@H]3O)c2n1` (relative stereo) [Ticagrelor, {1S-[1α,2α,3β(1S*,2R*),5β}-3-(7-{[2-(3,4-difluorophenyl)-cyclopropyl]amino}-5-(propylthio)-3H-1,2,3-triazol[4,5-d]pyrimidin-3-yl)-5-(2-hydroxyethoxy)cyclopentane-1,2-diol], the “Biopharmaceutical Classification System class” value is reported as “class IV”.
